Assay results reported in ChEMBL document CHEMBL1201862, “PubChem BioAssay data set” (2004).
Activity calls are given as the source filed them.

How the values were obtained:
[1] = target: T1, Apoptotic protease-activating factor 1 (Homo sapiens, UniProt O14727); experiment: SAR analysis of small molecule Activators of Apaf-1 in a Fluorescent assay - set 2.; assay type: functional; conditions: read-out: EC50_Mean
T1 sequence (O14727 whole entry): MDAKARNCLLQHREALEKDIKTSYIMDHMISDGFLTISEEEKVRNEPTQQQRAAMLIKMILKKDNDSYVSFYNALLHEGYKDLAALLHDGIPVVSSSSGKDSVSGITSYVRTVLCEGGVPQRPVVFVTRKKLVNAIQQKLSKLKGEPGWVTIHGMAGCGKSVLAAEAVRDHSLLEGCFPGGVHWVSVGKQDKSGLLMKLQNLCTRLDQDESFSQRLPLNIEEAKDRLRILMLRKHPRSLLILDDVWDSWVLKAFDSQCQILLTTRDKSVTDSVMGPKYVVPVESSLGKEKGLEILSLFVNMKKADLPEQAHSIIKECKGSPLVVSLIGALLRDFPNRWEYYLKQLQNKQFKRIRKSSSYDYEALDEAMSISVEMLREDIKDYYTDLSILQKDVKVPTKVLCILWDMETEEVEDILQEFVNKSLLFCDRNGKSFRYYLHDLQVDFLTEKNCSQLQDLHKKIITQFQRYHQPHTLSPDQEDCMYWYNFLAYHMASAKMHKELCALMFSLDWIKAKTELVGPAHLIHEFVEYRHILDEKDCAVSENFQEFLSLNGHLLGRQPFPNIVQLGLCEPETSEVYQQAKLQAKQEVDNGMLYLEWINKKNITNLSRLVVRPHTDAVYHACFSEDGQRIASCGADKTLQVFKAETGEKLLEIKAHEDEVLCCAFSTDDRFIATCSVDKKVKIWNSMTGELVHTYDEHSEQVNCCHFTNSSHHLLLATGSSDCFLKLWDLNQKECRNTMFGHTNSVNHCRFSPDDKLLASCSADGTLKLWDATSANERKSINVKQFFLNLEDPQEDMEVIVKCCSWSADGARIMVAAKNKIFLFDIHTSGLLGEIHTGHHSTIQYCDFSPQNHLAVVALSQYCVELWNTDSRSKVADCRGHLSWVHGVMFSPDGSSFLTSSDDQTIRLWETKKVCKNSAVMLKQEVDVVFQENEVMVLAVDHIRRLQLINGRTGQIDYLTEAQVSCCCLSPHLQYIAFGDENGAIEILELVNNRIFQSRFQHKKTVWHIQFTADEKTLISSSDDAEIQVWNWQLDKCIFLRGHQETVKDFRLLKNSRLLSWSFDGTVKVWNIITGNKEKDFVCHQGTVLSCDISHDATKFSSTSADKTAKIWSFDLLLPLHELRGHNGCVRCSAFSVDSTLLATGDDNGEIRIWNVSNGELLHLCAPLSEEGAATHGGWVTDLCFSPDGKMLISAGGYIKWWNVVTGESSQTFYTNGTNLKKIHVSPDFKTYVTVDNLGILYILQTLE

[2] = SAR analysis of small molecule activators of Apaf-1 using a LZ-Caspase-9/Caspase-3 Fluorescent Selectivity assay - Set 2.; assay type: functional; conditions: read-out: EC50_Mean
[3] = target: T2, Neuropeptides B/W receptor type 1 (Homo sapiens, UniProt P48145); experiment: human NPBW1 receptor blockade, IC50 – cell-based, fluorescence, dose response, set 6, late-stage follow-up (AID 588583); assay type: functional
T2 sequence (P48145 whole entry): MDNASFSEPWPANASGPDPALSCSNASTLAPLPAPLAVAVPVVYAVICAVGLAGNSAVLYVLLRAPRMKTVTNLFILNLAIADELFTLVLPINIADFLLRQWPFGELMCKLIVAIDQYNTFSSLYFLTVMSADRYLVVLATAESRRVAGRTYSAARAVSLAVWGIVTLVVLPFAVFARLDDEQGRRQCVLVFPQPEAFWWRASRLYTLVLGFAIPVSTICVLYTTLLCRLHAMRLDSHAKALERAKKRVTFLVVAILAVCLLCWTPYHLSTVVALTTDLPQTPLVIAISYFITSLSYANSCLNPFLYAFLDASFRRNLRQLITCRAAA

[4] = target: Melanin-concentrating hormone receptor 1 (Homo sapiens, UniProt Q99705); experiment: Late-stage fluorescence-based counterscreen for antagonists of the G-protein coupled receptor 7 (GPR7): cell-based dose response assay to identify antagonists of the melanin-concentrating hormone receptor 1 (MCHR1) Set 6.; assay type: functional
Sequence of Melanin-concentrating hormone receptor 1 (Q99705 whole entry): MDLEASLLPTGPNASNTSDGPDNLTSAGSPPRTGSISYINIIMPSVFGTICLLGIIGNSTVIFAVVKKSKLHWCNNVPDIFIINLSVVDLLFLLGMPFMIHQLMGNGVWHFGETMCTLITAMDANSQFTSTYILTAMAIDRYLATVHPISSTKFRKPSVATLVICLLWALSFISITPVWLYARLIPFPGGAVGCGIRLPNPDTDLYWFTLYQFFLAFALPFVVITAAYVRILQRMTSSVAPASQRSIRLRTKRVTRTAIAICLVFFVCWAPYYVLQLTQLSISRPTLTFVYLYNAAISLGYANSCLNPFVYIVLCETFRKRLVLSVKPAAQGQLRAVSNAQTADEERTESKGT

[5] = HepG2 cell cytotoxicity, cytotoxicity control, set 4 (AID 504910); assay type: functional; conditions: Mycobacterium tuberculosis
[6] = Vero cell cytotoxicity, dose response, cytotoxicity control for M. tuberculosis growth inhibitor project, Vero cells, purified and synthesized compounds, set 5 (AID 504909); assay type: functional; conditions: Mycobacterium tuberculosis
INS1 = experiment: INS-1E survival protection against cytokine death – cell-based, luminescence, retest, dose response (AID 449756); assay type: functional; conditions: Rattus norvegicus;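 note: cell death triggered by IL-1 beta plus TNF-alpha plus IFN-gamma mixture; protective hits raise ATP signal compared with cytokine alone wells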
Streptokinase A = target: T3, Streptokinase A (Streptococcus pyogenes serotype M1, UniProt P10520); experiment: viability-normalized secreted streptokinase activity reduction – plasminogen activation absorbance, OD405, dose response (AID 1914); assay type: functional, Streptococcus pyogenes M1 GAS;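 note: secreted streptokinase activity via plasminogen activation per viability signal from cell pellet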
T3 sequence (P10520 whole entry): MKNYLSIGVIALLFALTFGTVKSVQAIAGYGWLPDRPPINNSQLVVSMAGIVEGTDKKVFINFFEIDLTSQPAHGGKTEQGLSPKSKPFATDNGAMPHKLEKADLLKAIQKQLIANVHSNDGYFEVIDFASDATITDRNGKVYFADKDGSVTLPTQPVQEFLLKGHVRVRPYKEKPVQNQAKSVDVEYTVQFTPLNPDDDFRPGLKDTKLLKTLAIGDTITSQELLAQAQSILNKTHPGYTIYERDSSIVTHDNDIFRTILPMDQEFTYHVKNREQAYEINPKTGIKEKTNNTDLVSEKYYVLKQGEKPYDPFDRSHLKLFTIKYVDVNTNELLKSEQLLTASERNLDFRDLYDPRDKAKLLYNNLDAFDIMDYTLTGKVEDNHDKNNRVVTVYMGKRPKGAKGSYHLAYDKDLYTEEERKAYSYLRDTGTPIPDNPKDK

[7] = test system: Streptococcus sp. 'group A'; experiment: Streptococcus pyogenes SK(-)GAS viability under kanamycin – luminescence, BacTiterGlo, confirmation, counter-screen for streptokinase expression inhibitor project, dose response (AID 1900); assay type: functional, organism-based
[8] = THP-1 cell cytotoxicity, cytotoxicity control, set 4 (AID 504911); assay type: functional; conditions: Mycobacterium tuberculosis
Streptococcus = experiment: GAS UMAA2166 growth inhibition – luminescence, BacTiterGlo, counter-screen for streptokinase expression inhibitor project, dose response (AID 1915); assay type: functional, organism-based;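 note: potency for reduction of bacterial viability or growth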

Structure (SMILES): O=C(O)C1(Cn2cccn2)CC1
- EC50 [1]: > 100 µM (inactive)
- EC50 [2]: > 100 µM (inactive)

Structure (SMILES): NC(=O)C(c1ccccc1)c1c(Cl)cnn(Cc2cccc3ccccc23)c1=O (stereo unspecified)
- IC50 [3]: > 20 µM (inactive)
- IC50 [4]: > 20 µM (inactive)

Structure (SMILES): CC(C)/N=c1\cc2n(-c3ccc(Cl)cc3)c3ccccc3nc-2cc1Nc1ccc(Cl)cc1 [CLOFAZIMINE]
- CC50 [5]: 4.7 µM (active)
- CC50 [6]: 10.2 µM (active)
- AC50 (INS1): 2.06 µM (active)
- EC50 (Streptokinase A): 2.28 µM (active)
- EC50 [7]: 1.86 µM (active)
- CC50 [8]: 2.2 µM (active)
- EC50 (Streptococcus): 36.9 µM (active)
